The results in this text go back to patent US10053468B2, “Heterocyclic compound” (TAKEDA PHARMACEUTICAL COMPANY LIMITED, priority 2013, dated 2018).

Like-named read-outs stand apart in the source and are kept apart here.

Assay [1] deals with T1, RORγt (Homo sapiens, UniProt P51449).
T1 sequence (P51449 1-497 isoform P51449-2): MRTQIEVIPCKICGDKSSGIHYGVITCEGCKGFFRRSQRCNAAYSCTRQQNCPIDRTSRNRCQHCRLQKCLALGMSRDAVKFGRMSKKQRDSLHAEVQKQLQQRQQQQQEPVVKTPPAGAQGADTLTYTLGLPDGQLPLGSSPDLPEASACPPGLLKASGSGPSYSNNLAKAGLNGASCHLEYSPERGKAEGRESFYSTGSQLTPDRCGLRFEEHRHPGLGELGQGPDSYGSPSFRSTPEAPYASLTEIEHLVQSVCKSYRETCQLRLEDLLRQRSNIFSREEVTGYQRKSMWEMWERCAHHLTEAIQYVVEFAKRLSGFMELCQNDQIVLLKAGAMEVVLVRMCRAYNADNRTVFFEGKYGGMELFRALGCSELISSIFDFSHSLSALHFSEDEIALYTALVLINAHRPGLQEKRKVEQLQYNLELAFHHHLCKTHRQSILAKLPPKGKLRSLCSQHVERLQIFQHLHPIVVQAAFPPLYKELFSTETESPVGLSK
The assay can be described thus: RORγt binding test using fluorescent-labeled synthetic ligand (TR-FRET). Conditions: read-out: Binding inhibitory rate of fluorescent-labeled synthetic ligand to RORγt at test compound 1 μM (%). The procedure, abridged:
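His-tagged RORγt (diluted to 240 nM) with compound, then fluorescent synthetic ligand (diluted to 12 μM), 20 min at room temperature, followed by Tb anti-His antibody (diluted to 8 nM), 20 min.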
On the technique in general: In TR-FRET formats the signal depends on donor and acceptor labels being close together.

Assay [2] addresses T1, RORγt. The assay can be described thus: Cofactor recruitment test (Alpha Screen, biotinylated SRC-1 peptide). The settings on record: read-out: Signal value inhibitory rate at test compound 1 μM (%). The format is biochemical. The procedure: Cofactor Recruitment Test
Cofactor recruitment test was performed by Alpha Screen (Histidine Detection Kit, PerkinElmer) method. First, a test compound was diluted with an assay buffer (50 mM Tris-HCl (pH 7.5), 50 mM KCl, 1 mM DTT, 0.1% BSA) and added to a 384 well plate by 5 μL. […] The mixture was stood in a dark place for 1 hr, and the signal value was measured by Envision (PerkinElmer).

The target in assay [3] is T1, RORγt. The assay can be described thus: RORγt binding test using fluorescent-labeled cholesterol (TR-FRET). Conditions: read-out: Binding inhibitory rate of fluorescent-labeled cholesterol to RORγt at test compound 1 μM (%). The procedure, abridged:
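TR-FRET displacement with His-tagged RORγt, BODIPY-cholesterol and Tb-anti-His antibody in Tris-HCl pH 7.5, 100 mM NaCl, 1 mM DTT, 0.1% BSA. Compound, RORγt and labelled cholesterol were incubated 20 min at RT, then antibody was added for another 20 min.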

For assay [4], the target named is T1, RORγt. Nature of the assay: Jurkat reporter test (human IL-17 ROR response element luciferase, RORγt vector). The class given is cell-based. Conditions: read-out: Luminescence level inhibitory rate at test compound 3 μM (%). The gist of the method: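 Jurkat cells were electroporated (1350 V, 10 ms, 3 pulses) with reporter constructs, then cultured overnight with compound in RPMI containing 10% lipid-reduced FCS, 10 mM HEPES pH 7.5 and 5 μM lovastatin. Luciferase was quantified by Bright-Glo luminescence after 10 min at room temperature.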

Setting [5] is: test compound 3 μM, Jurkat cells.

Turning to `CCOc1ccc2c(n1)CCN(C(=O)Cc1cc(O)no1)[C@H]2C(=O)Nc1cc(F)c2c(c1)CCC2(C)C` [Example 147, (5R)-2-ethoxy-N-(7-fluoro-1,1-dimethyl-2,3-dihydro-1H-inden-5-yl)-6-((3-hydroxy-1,2-oxazol-5-yl)acetyl)-5,6,7,8-tetrahydro-1,6-naphthyridine-5-carboxamide], the inhibition at 1 µM at RORγt [1] is 101%; at RORγt [2] it was 89%; on RORγt [3], 101%. The inhibition at 3 µM on RORγt [4] (setting [5]) came to 101%.
For `COc1ccc2c(c1)OCCN(C(=O)Cc1cc(O)no1)[C@H]2C(=O)Nc1cc(F)c([Si](C)(C)C)c(F)c1` [Example 56, (5R)-N-(3,5-difluoro-4-(trimethylsilyl)phenyl)-4-((3-hydroxy-1,2-oxazol-5-yl)acetyl)-8-methoxy-2,3,4,5-tetrahydro-1,4-benzoxazepine-5-carboxamide], the inhibition at 1 µM on RORγt [1] is 102%; on RORγt [2], 61.3%; at RORγt [3], 101%. In addition, the inhibition at 3 µM on RORγt [4] (Jurkat) was determined as 99.9%.
As to `COc1ccc2c(c1)CCN(C(=O)Cc1cc(O)no1)[C@H]2C(=O)Nc1ccc(C(C)(C)C)c(C#N)c1` [Example 65, (1R)-N-(4-tert-butyl-3-cyanophenyl)-2-((3-hydroxy-1,2-oxazol-5-yl)acetyl)-6-methoxy-1,2,3,4-tetrahydroisoquinoline-1-carboxamide], the inhibition at 1 µM is 101% on RORγt [1], 98% at RORγt [2] and 102% on RORγt [3]. The inhibition at 3 µM at RORγt [4] (setting [5]) came out at 100%.
In the same order, the values of `CCOCC(C)(C)c1c(F)cc(NC(=O)[C@H]2c3ccc(OCC)cc3CCN2C(=O)CCCC(=O)O)cc1F` [Example 166, 5-((1R)-6-ethoxy-1-((4-(1-ethoxy-2-methylpropan-2-yl)-3,5-difluorophenyl)carbamoyl)-3,4-dihydroisoquinolin-2(1H)-yl)-5-oxopentanoic acid] are 102%, 86%, 100% and 99%.
In the same order, the values of `COCC(C)(C)c1c(F)cc(NC(=O)[C@H]2c3ccc(OC)cc3CCN2C(=O)Cc2cc(O)no2)cc1F` [Example 98, (1R)-N-(3,5-difluoro-4-(1-methoxy-2-methylpropan-2-yl)phenyl)-2-((3-hydroxy-1,2-oxazol-5-yl)acetyl)-6-methoxy-1,2,3,4-tetrahydroisoquinoline-1-carboxamide] are 102%, 96%, 99% and 102%.
In the same order, the values of `COc1ccc2c(c1)CCN(C(=O)[C@@H]1CNC(=O)C1)[C@H]2C(=O)Nc1ccc(C(C)(C)C)c(F)c1` [Example 25, (1R)-N-(4-tert-butyl-3-fluorophenyl)-6-methoxy-2-(((3S)-5-oxopyrrolidin-3-yl)carbonyl)-1,2,3,4-tetrahydroisoquinoline-1-carboxamide] are 101%, 85.8%, 102% and 102%.
Turning to `CCOCC(C)(C)c1c(F)cc(NC(=O)[C@H]2c3ccc(OC)cc3CCN2C(=O)c2cc(O)no2)cc1F` [Example 171, (1R)-N-(4-(1-ethoxy-2-methylpropan-2-yl)-3,5-difluorophenyl)-2-((3-hydroxy-1,2-oxazol-5-yl)carbonyl)-6-methoxy-1,2,3,4-tetrahydroisoquinoline-1-carboxamide], the inhibition at 1 µM at RORγt [1] amounted to 101%; on RORγt [2], 82%; on RORγt [3], 100%. Besides, the inhibition at 3 µM on RORγt [4] (setting [5]) was determined as 96%.
Regarding `COCc1ccc2c(c1)CCN(C(=O)Cc1cc(O)no1)[C@H]2C(=O)Nc1ccc([Si](C)(C)C)c(F)c1` [Example 101, (1R)-N-(3-fluoro-4-(trimethylsilyl)phenyl)-2-((3-hydroxy-1,2-oxazol-5-yl)acetyl)-6-(methoxymethyl)-1,2,3,4-tetrahydroisoquinoline-1-carboxamide], the figures for the inhibition at 1 µM at RORγt [1], at RORγt [2] and at RORγt [3] were 102%, 99% and 102%, respectively. Also, at RORγt [4] (Jurkat), the inhibition at 3 µM was found to be 103%.
Turning to `COc1ccc2c(c1)CCN(C(=O)Cc1cccnc1)[C@H]2C(=O)Nc1cc(F)c(C(C)(C)C(=O)N2CCCC2)c(F)c1` [Example 105, (1R)-N-(3,5-difluoro-4-(2-methyl-1-oxo-1-(pyrrolidin-1-yl)propan-2-yl)phenyl)-6-methoxy-2-(pyridin-3-ylacetyl)-1,2,3,4-tetrahydroisoquinoline-1-carboxamide], the inhibition at 1 µM amounted to 101% at RORγt [1], 100% on RORγt [2] and 103% at RORγt [3]. Also, the inhibition at 3 µM on RORγt [4] (setting [5]) was determined as 101%.
As for `COc1ccc2c(c1)CCN(C(=O)Cc1cc(O)no1)[C@H]2C(=O)Nc1ccc([Si](C)(C)C)c(C#N)c1` [Example 72, (1R)-N-(3-cyano-4-(trimethylsilyl)phenyl)-2-((3-hydroxy-1,2-oxazol-5-yl)acetyl)-6-methoxy-1,2,3,4-tetrahydroisoquinoline-1-carboxamide], the inhibition at 1 µM was determined as 102% at RORγt [1], 94% on RORγt [2] and 104% on RORγt [3]. Also, the inhibition at 3 µM at RORγt [4] (Jurkat) is 100%.
As for `COc1ccc2c(c1)CCN(C(=O)c1cc(O)no1)[C@H]2C(=O)Nc1ccc(C(C)(C)C)c(F)c1` [Example 13, (1R)-N-(4-tert-butyl-3-fluorophenyl)-2-((3-hydroxy-1,2-oxazol-5-yl)carbonyl)-6-methoxy-1,2,3,4-tetrahydroisoquinoline-1-carboxamide], the inhibition at 1 µM on RORγt [1] came to 102%; at RORγt [2], 80.4%; at RORγt [3] it was 100%. Also, at RORγt [4] (setting [5]), the inhibition at 3 µM was 101%.
With `CC[Si](C)(C)c1c(F)cc(NC(=O)[C@H]2c3ccc(OC)nc3CCN2C(=O)CCCC(=O)O)cc1F` [Example 114, 5-((5R)-5-((4-(ethyl(dimethyl)silyl)-3,5-difluorophenyl)carbamoyl)-2-methoxy-7,8-dihydro-1,6-naphthyridin-6(5H)-yl)-5-oxopentanoic acid], the inhibition at 1 µM on RORγt [1] was 102%; on RORγt [2], 98%; on RORγt [3], 103%. In addition, the inhibition at 3 µM on RORγt [4] (Jurkat) amounted to 101%.
